Experimental data: patent publication US20030203055A1, “Methods of treating visceral pain syndromes” (Cypress Bioscience, Inc., priority 2002, published 2003)

Legend:
[1] = in humans; Caccia 1998; cited from earlier work
[2] = system: norepinephrine reuptake; details: cited from earlier work; for activity in inhibiting norepinephrine reuptake relative to the racemic mixture: believed, Viazzo et al. 1996, Deprez et al. 1998
[3] = system: patients with a diagnosis of Irritable Bowel Syndrome (IBS) comorbid with fibromyalgia; experiment: 12-week dose escalation monotherapy trial of milnacipran in Irritable Bowel Syndrome; assay type: in vivo, human; details: 11 IBS/fibromyalgia patients, 25 to 200 mg daily
Description: A 12-week dose escalation monotherapy trial was conducted to evaluate milnacipran's efficacy in patients with a diagnosis of Irritable Bowel Syndrome (IBS) comorbid with fibromyalgia. Patients were washed off of a variety medications-including centrally acting stimulants, antidepressants and sedative-hypnotics-over a 2-4 week period; this was followed by a two-week baseline period. After successful completion of the baseline period, patients were started on milnacipran. All patients were started at a dose of 25 mg daily, and were then escalated weekly over a 4-week period to 50, 100, and finally 200 mg daily, or until dose-limiting toxicity (DLT) was evident. In the event that DLT was evident, the patient was stabilized at the previously well-tolerated dosage, and remained on this dose for eight weeks at stable dose therapy.
The patient global impression of change (PGIC) was administered at clinic visits scheduled during the 4th, 8th, and 12th weeks of treatment. The PGIC is a highly clinically relevant instrument useful for measurement of patient improvement during controlled clinical trials. (Indeed, this instrument was the basis by which alosetron (Lotronex™) was approved by the Food and Drug Administration for the IBS indication.)
The PGIC is a conceptually simple instrument which assesses the patient's overall satisfaction with a course of drug therapy. This is done by asking the patient, “Since the start of the study, my overall status is:” with the patient choosing from the 7 choices depicted in Table 1.
For the present purposes, responses between 1-3 and 5-7 were collapsed into “Improved” and “Worse”, respectively.

[4] = system: serotonin reuptake; details: cited from earlier work; for activity in inhibiting serotonin reuptake relative to the racemic mixture: believed, Viazzo et al. 1996, Deprez et al. 1998
[5] = system: NMDA receptor; details: Shuto et al. 1995, 1996, 1998, 2001; cited from earlier work

## CCN(CC)C(=O)C1(c2ccc(O)cc2)CC1CN (centres unmarked) [para-hydroxylated derivative]
[1]
  found in urine: found in urine

## CCN(CC)C(=O)[C@@]1(c2ccccc2)C[C@H]1CN (racemic) [milnacipran, (±)-cis-2-(aminomethyl)-N,N-diethyl-1-phenylcyclopropanecarboxamide]
[2]; reported, Moret et al. 1985, Palmier et al. 1989
  IC50: […]
[3]
  trial conclusion: therapy for IBS (PGIC at 12 weeks): safe and effective therapy for IBS
[3]; 12 weeks
  most common adverse event: intermittent nausea
  nature of milnacipran related adverse events: transitory in nature
  reported AE of constipation: one
  serious adverse events during the course of the trial: no serious adverse events
[1]
  found in urine: found in urine
[4]; reported, Moret et al. 1985, Palmier et al. 1989, read-out: IC50 serotonin reuptake inhibition
  IC50: 0.2 µM
[5]
  antagonistic properties at the NMDA receptor: have antagonistic properties at the NMDA receptor

## CCN(CC)C(=O)[C@@]1(c2ccccc2)C[C@H]1CN (single isomer, unassigned) [levrogyral enantiomer]
[2]
  activity in inhibiting norepinephrine reuptake relative to the racemic mixture: […]
[4]
  activity in inhibiting serotonin reuptake relative to the racemic mixture: […]
